Data from US10420734B2, “Method of treating cancer using selective estrogen receptor modulators” (Duke University, priority 2014, dated 2019).

Assays:
[1] = system: ESR1 target gene trefoil factor 1 (TFF1); test: E2-dependent ESR1 target gene (TFF1) mRNA in MCF7 cells, RT qPCR; format: cell-based; conditions: 10^-9 M E2, ligand 10^-11-10^-6 M, 24 hours
Description: RNA isolation and analysis was performed as described (Wardell et al., (2001) Biochem Pharmacol 82 (2):122-130). mRNA abundance was calculated using the ΔΔCT method (Wardell et al., (2001) Biochem Pharmacol 82 (2):122-130). Primer sequences are available upon request.
The ability of RAD1901 (FIG. 5A) to modulate the […] estradiol (E2) dependent transcriptional activity of the human estrogen receptor alpha (ESR1) and human estrogen receptor beta (ESR2) was assessed in transiently transfected SKBR3 cells using a synthetic reporter gene. […] For FIG. 5B, SKBR3 cells were plated in phenol red free media supplemented with charcoal stripped FBS (CFS) 24 hours prior to transfection with an ERE-luciferase reporter together with ESR1 or ESR2 expression vectors. 24 hours after transfection, cells were treated with E2 (10 nM) together with RAD1901 (10^−10-10^−6 M) for 24 hours prior to harvest and analysis of luciferase activity normalized to co-transfected β-galactosidase control. […] DNA content as assessed by fluorescence was measured as a surrogate for cell proliferation. The relative increase in DNA fluorescence was calculated by normalizing to baseline values detected in a duplicate plate of cells that was harvested on day 1 prior to the initial treatment. […] For FIG. 5F, expression of ESR1 target genes in tumors was analyzed essentially as in (C).

[2] = target: T1, ESR1 (Homo sapiens, UniProt P03372); test: ESR1 expression in LTED MCF7 cells (immunoblot); format: cell-based; conditions: 24 hours, SERDs 10^-6 M
T1 sequence (P03372 1-595): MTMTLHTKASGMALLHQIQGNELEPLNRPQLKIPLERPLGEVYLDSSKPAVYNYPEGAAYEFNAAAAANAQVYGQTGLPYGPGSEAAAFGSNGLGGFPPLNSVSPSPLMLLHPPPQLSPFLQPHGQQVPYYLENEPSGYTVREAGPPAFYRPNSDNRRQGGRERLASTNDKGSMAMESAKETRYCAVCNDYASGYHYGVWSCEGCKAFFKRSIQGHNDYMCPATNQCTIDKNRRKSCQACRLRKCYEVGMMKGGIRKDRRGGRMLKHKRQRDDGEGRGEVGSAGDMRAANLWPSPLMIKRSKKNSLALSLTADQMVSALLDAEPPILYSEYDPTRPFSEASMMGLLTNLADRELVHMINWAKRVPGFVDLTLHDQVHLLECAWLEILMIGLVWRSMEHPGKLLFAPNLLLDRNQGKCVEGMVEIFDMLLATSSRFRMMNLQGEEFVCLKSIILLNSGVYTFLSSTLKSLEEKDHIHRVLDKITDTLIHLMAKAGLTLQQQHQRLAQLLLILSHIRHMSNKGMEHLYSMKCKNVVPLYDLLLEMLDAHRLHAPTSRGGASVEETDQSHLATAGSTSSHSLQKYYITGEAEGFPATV
Description: MCF7 and SKBR3 cell lines were maintained in DMEM/F12 or RPMI media (Invitrogen), respectively, supplemented with 8% fetal bovine serum (FBS, Gemini), non-essential amino acids (Invitrogen), and sodium pyruvate (Invitrogen). Unless otherwise indicated, cells were plated for experiments in media lacking phenol red and supplemented with 8% charcoal stripped FBS (CFS, Gemini). LTED MCF7 cells were maintained and plated for experiments in phenol red free DMEM/F12 media supplemented with 8% CFS that had been charcoal stripped twice. 48 hours after plating, cells were treated with ESR1 ligands as indicated, and were harvested for immunoblot or real time quantitative PCR analysis 24 hours after treatment.
Expression of ESR1 and loading control cytokeratin 18 (CK18—FIG. 7A) in whole cell extracts were detected by immunoblot (top). ESR1 levels relative to CK18 were quantitated by densitometry using Adobe Photoshop (bottom). […] ESR1 expression was detected as in FIG. 6A. For FIGS. 6C-6D, LTED MCF7 cells were plated in phenol red free media supplemented with FBS that was stripped of growth factors twice using charcoal. For FIG. 6C, after 48 hours, cells were treated for 24 hours with E2 (10^−7 M) or SERDs (10^−6 M) and ESR1 was analyzed as in FIG. 6A.

- ESR1 expression levels [2]: downregulated ESR1 expression
Compound: CCNCCc1ccc(CN(CC)c2cc(OC)ccc2[C@@H]2CCc3cc(O)ccc3C2)cc1 [RAD1901, (R)-6-{2-{ethyl[4-(2-ethylaminoethyl)benzyl]amino}-4-methoxyphenyl}-5,6,7,8-tetrahydronaphthalen-2-ol]
- E2-dependent induction of target gene transcription (TFF1 mRNA) [1]: inhibited
